Source: patent publication US12691086B2, “Methods of treating systemic sclerosis and idiopathic pulmonary fibrosis” (HORIZON THERAPEUTICS IRELAND DAC, priority 2022, dated 2026)
In brackets after ≈: the same amount, converted by molar mass.

Legend:
[1] = tested on: idiopathic pulmonary fibrosis; details: Palmer et al. Chest 2018; cited from earlier work
[2] = Physical stability of solid state forms, examined by FTIR; format: physicochemical; details: 80° C./75% RH, 1 week (7 days), open glass vials
Procedure: The physical stability of Forms 1, 2, and 3 was investigated at 80° C./75% RH in order to determine if interconversion was observed. The samples were examined by FTIR after stressing 1 week in open glass vials.

[3] = Dynamic Vapor Sorption (DVS); format: physicochemical
Procedure: Moisture sorption/desorption isotherms are recorded on a DVS-1 from SURFACE MEASUREMENT SYSTEMS. Two cycles are run at 25° C., in which the Relative Humidity (RH) is stepped from 0 to 95% and back to 0%. The data is evaluated with the software DVSWin V. 2.15.

[4] = Solubility of the different polymorphs in phosphate buffer; format: physicochemical; details: for solubility, concentration versus time: pH 7.4 phosphate buffer, 25° C.; for equilibrium solubility relative to Form 1: 24 hours
Procedure: The solubility of the different polymorphs was determined at pH 7.4 in phosphate buffer at 25° C. Samples were analyzed as a function of time for each form to determine the equilibrium values. The residual solids from each sample were analyzed to verify that the form was unchanged during the experiment. The concentration (mg/mL) versus time data is listed below for each form: […]

Row | SMILES | rate of decline in forced vital capacity (FVC) compared with placebo [1] | changes in FTIR spectrum (physical stability, interconversion) [2] | Reversible water uptake ([3]; 25° C.) | Reversible water uptake ([3]; between 0 and 95% RH) | solubility, concentration versus time ([4]; 1 hr) [µg/mL] | solubility, concentration versus time ([4]; 2 hr) [µg/mL] | solubility, concentration versus time ([4]; 3 hr) [µg/mL] | 24 hour solubility result, greater than Form 1 ([4]; 24 hour) | equilibrium solubility relative to Form 1 [4]
1 | Cc1noc(-c2ccc(-c3ccc(C4(C(=O)O)CC4)cc3)cc2)c1NC(=O)O[C@H](C)c1ccccc1 [BMS-986020] | significantly slowed |  |  |  |  |  |  |  | 
2 | COc1ccc(C(=O)NC2(C(=O)O)Cc3ccccc3C2)cc1OCCc1cccc(C)c1 [Form 1, 2-(4-methoxy-3-(3-methylphenethoxy)benzamido)-2,3-dihydro-1H-indene-2-carboxylic acid] |  | unchanged FTIR | less than 1% | ~ −0.1 % w/w | 42 (≈ 94.3 µM) | 41 (≈ 92 µM) | 42 (≈ 94.3 µM) |  | 
3 | COc1ccc(C(=O)NC2(C(=O)O)Cc3ccccc3C2)cc1OCCc1cccc(C)c1 [Form 2, 2-(4-methoxy-3-(3-methylphenethoxy)benzamido)-2,3-dihydro-1H-indene-2-carboxylic acid] |  | unchanged FTIR |  |  | 34 (≈ 76.3 µM) | 39 (≈ 87.5 µM) | 43 (≈ 96.5 µM) | more than 30% | 
4 | COc1ccc(C(=O)NC2(C(=O)O)Cc3ccccc3C2)cc1OCCc1cccc(C)c1 [Form 3, 2-(4-methoxy-3-(3-methylphenethoxy)benzamido)-2,3-dihydro-1H-indene-2-carboxylic acid] |  | unchanged FTIR |  |  | 83 (≈ 186 µM) | 93 (≈ 209 µM) | 95 (≈ 213 µM) |  | more than double
5 | COc1ccc(C(=O)NC2(C(=O)O)Cc3ccccc3C2)cc1OCCc1cccc(C)c1 [Form 4, 2-(4-methoxy-3-(3-methylphenethoxy)benzamido)-2,3-dihydro-1H-indene-2-carboxylic acid] |  |  |  |  | 79 (≈ 177 µM) | 89 (≈ 200 µM) | 105 (≈ 236 µM) |  | more than double
